Article PMC6627609, “Targeting Quorum Sensing: High-Throughput Screening to Identify Novel LsrK Inhibitors” (International Journal of Molecular Sciences, 2019)
Counter-ions that a name gives are not always drawn.

Target: LsrK (Salmonella typhimurium, UniProt Q8ZKQ6)
Experiment: biochemical
Format: biochemical, S. typhimurium
Conditions: for Inhibition (%): 50 µM

Chain of LsrK (Q8ZKQ6 whole entry): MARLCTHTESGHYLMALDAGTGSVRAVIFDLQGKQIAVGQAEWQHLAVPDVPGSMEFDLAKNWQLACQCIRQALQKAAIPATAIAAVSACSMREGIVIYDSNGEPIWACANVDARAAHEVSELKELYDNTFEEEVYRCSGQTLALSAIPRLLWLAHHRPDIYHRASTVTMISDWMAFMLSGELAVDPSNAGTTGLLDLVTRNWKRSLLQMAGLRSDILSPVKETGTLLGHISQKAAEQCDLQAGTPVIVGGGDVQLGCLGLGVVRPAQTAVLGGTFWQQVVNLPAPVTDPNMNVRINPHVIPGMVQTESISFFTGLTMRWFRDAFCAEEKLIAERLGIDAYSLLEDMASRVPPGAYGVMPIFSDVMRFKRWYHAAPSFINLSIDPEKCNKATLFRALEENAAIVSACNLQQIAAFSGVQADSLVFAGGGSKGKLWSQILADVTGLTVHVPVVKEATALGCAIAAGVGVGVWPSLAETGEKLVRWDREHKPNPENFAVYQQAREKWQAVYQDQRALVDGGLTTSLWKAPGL

## CO/N=C(\C(=O)N[C@@H]1C(=O)N2C(C(=O)OC(C)OC(C)=O)=C(COC(N)=O)CS[C@H]12)c1ccco1 (stereo partly shown) [CEFUROXIME AXETIL]
  inhibition at 50 µM: 2%

## O=C(O)c1cn(C2CC2)c2cc(N3CCNCC3)c(F)cc2c1=O [CIPROFLOXACIN]
  inhibition at 50 µM: 1%

## CN(C)CC/C=C1/c2ccccc2Sc2ccc(Cl)cc21 [CHLORPROTHIXENE HYDROCHLORIDE]
  inhibition at 50 µM: 2%

## COc1ccc(-c2coc3cc(OC)ccc3c2=O)cc1 [7.4'-DIMETHOXYISOFLAVONE]
  Inhibition (%): 1

## CC(=O)Nc1cccc(O)c1 [METACETAMOL]
  inhibition at 50 µM: 1%

## N#C/C(=C\c1ccc(O)cc1)C(=O)O [alpha-CYANO-4-HYDROXYCINNAMIC ACID]
  inhibition at 50 µM: 1%

## COc1cc2c(cc1OC)C(=O)C(CC1CCN(Cc3ccccc3)CC1)C2 (stereo not shown) [DONEPEZIL HYDROCHLORIDE]
  inhibition at 50 µM: 2%

## CCCCCCc1ccc(O)cc1O [HEXYLRESORCINOL]
  inhibition at 50 µM: 0%

## [H]/N=C(/N)N/C(=N/[H])NCCc1ccccc1 [PHENFORMIN HYDROCHLORIDE]
  inhibition at 50 µM: 0%

## CC(=O)O[C@H]1C[C@@H]2CC[C@@H]3[C@H](CC[C@@]4(C)[C@H]3C[C@H]([N+]3(C)CCCCC3)[C@@H]4OC(C)=O)[C@@]2(C)C[C@@H]1N1CCCCC1 [VECURONIUM BROMIDE]
  inhibition at 50 µM: 1%

## Cc1cc(O)c(C=O)c2c1C(=O)Oc1c(COC(=O)/C=C/C(=O)O)c(O)c(C(=O)O)c(C)c1O2 [FUMARPRO[…]]
  IC50: 7 µM
  inhibition at 50 µM: 150%

## O=C(O)c1ccccc1 [BENZOIC ACID]
  inhibition at 50 µM: 3%

## Cc1occc(=O)c1O [LARIXINIC ACID]
  Inhibition (%): 1

## CNC[C@H](O)[C@@H](O)[C@H](O)[C@H](O)CO [MEGLUMINE]
  inhibition at 50 µM: 1%

## COc1cc(-c2coc3cc(O[C@@H]4O[C@H](CO)[C@@H](O)[C@H](O)[C@H]4O)c(OC)c(O)c3c2=O)cc(O)c1OC [IRIDIN]
  inhibition at 50 µM: 1%

## Cc1nnc(NS(=O)(=O)c2ccc(N)cc2)s1 [SULFAMETHIZOLE]
  inhibition at 50 µM: 2%

## COC(=O)C(N)CS (stereo not shown) [MECYSTEINE HYDROCHLORIDE]
  inhibition at 50 µM: 112%

## C[C@@H]1O[C@@H](Oc2c(-c3ccc(O)c(O)c3)oc3cc(O)cc(O)c3c2=O)[C@H](O)[C@H](O)[C@H]1O [QUERCITRIN]
  inhibition at 50 µM: 2%

## Cc1ccc2c(Cl)cc(Cl)c(O)c2n1 [CHLORQUINALDOL]
  inhibition at 50 µM: 0%

## CC[C@H](/C=C/[C@@H](C)[C@H]1CC[C@H]2[C@@H]3CC=C4C[C@@H](O)CC[C@]4(C)[C@H]3CC[C@]12C)C(C)C [STIGMASTEROL]
  inhibition at 50 µM: 1%

## CCC(=O)O[C@H]1[C@H](O[C@@H]2[C@@H](C)[C@H](O[C@H]3C[C@@](C)(OC)[C@@H](O)[C@H](C)O3)[C@@H](C)C(=O)O[C@H](CC)[C@@](C)(O)[C@H](O)[C@@H](C)C(=O)[C@H](C)C[C@@]2(C)O)O[C@H](C)C[C@@H]1N(C)C [ERYTHROMYCIN ESTOLATE]
  inhibition at 50 µM: 10%

## C[C@]12CC[C@H]3[C@@H](CCC4=CC(=O)CC[C@@]43C)[C@@H]1CC[C@H]2O [EPITESTOSTERONE]
  inhibition at 50 µM: 0%

## CN(C)CCC(c1ccc(Br)cc1)c1ccccn1 (stereo not shown) [BROMPHENIRAMINE MALEATE]
  inhibition at 50 µM: 1%

## CC(C)(C)NCC(O)c1cc(O)cc(O)c1.CC(C)(C)NCC(O)c1cc(O)cc(O)c1.O=S(=O)(O)O (stereo not shown) [TERBUTALINE HEMISULFATE]
  Inhibition (%): 1

## CN(C)c1ccc(C(=C2C=CC(=[N+](C)C)C=C2)c2ccc(N(C)C)cc2)cc1 [GENTIAN VIOLET]
  inhibition at 50 µM: 11%

## CC1(C)O[C@@H]2[C@@H](CO[C@@]3(COS(N)(=O)=O)OC(C)(C)O[C@@H]23)O1 [TOPIRAMATE]
  inhibition at 50 µM: 1%

## COc1cc(NC(C)CCCN)c2ncccc2c1 (stereo not shown) [PRIMAQUINE DIPHOSPHATE]
  inhibition at 50 µM: 89%

## Cc1cnc(C(=O)NCCc2ccc(S(=O)(=O)NC(=O)NC3CCCCC3)cc2)cn1 [GLIPIZIDE]
  inhibition at 50 µM: 1%

## N=C(N)N/N=C/c1c(Cl)cccc1Cl [GUANABENZ ACETATE]
  inhibition at 50 µM: 0%

## NC(=O)CC[C@H](N)C(=O)O [GLUTAMINE (L)]
  Inhibition (%): 0

## COc1cc2nc(N3CCN(C(=O)C4COc5ccccc5O4)CC3)nc(N)c2cc1OC (stereo not shown) [DOXAZOSIN MESYLATE]
  inhibition at 50 µM: 0%

## S=P(N1CC1)(N1CC1)N1CC1 [THIOTEPA]
  inhibition at 50 µM: 14%

## CC1(C)S[C@@H]2[C@H](NC(=O)[C@H](C(=O)O)c3ccsc3)C(=O)N2[C@H]1C(=O)O [TICARCILLIN DISODIUM]
  inhibition at 50 µM: 0%

## O=C(O)P(=O)(O)O [FOSCARNET SODIUM]
  inhibition at 50 µM: 1%

## C[N+]1(C)CCCC(OC(=O)C(O)(c2ccccc2)c2ccccc2)C1 (stereo not shown) [MEPENZOLATE BROMIDE]
  inhibition at 50 µM: 3%

## CN(C)[C@@H]1C(O)=C(C(N)=O)C(=O)[C@@]2(O)C(O)=C3C(=O)c4c(O)ccc(Cl)c4[C@@](C)(O)[C@H]3C[C@@H]12 [CHLORTETRACYCLINE HYDROCHLORIDE]
  inhibition at 50 µM: 77%

## C=CC(C1=CC(=O)C(OC)=CC1=O)c1ccccc1 (stereo not shown) [4-METHOXYDALBERGIONE]
  inhibition at 50 µM: 52%

## Nc1[nH]c(=O)ncc1F [FLUCYTOSINE]
  inhibition at 50 µM: 0%

## CCCCNc1cc(C(=O)O)cc(S(N)(=O)=O)c1Oc1ccccc1 [BUMETANIDE]
  inhibition at 50 µM: 1%

## C[C@H]1[C@H](NC(=O)/C(=N\OC(C)(C)C(=O)O)c2csc(N)n2)C(=O)N1S(=O)(=O)O [AZTREONAM]
  inhibition at 50 µM: 1%

## CCCCCC(=O)Cc1cc(O)cc(O)c1C(=O)Oc1cc(CC(=O)CCCCC)c(C(=O)O)c(OC)c1 [[…]]
  inhibition at 50 µM: 0%

## NS(=O)(=O)c1cc2c(cc1Cl)NC(C(Cl)Cl)NS2(=O)=O (stereo not shown) [TRICHLORMETHIAZIDE]
  inhibition at 50 µM: 1%

## O=C(Oc1cc(O)cc2c1C[C@@H](OC(=O)c1cc(O)c(O)c(O)c1)[C@@H](c1cc(O)c(O)c(O)c1)O2)c1cc(O)c(O)c(O)c1 [EPIGALLOCATECHIN 3.5-DIGALLATE]
  Inhibition (%): 88

## CC(=O)O[C@]1(C(C)=O)CC[C@H]2[C@@H]3C=C(Cl)C4=CC(=O)CC[C@]4(C)[C@H]3CC[C@@]21C [CHLORMADINONE ACETATE]
  inhibition at 50 µM: 1%

## CO[C@@]1(NC(=O)Cc2cccs2)C(=O)N2C(C(=O)O)=C(COC(N)=O)CS[C@@H]21 [CEFOXITIN SODIUM]
  inhibition at 50 µM: 3%

## CC[C@H]1OC(=O)C[C@@H](O)[C@H](C)[C@@H](O[C@@H]2O[C@H](C)[C@@H](O[C@H]3C[C@@](C)(O)[C@@H](O)[C@H](C)O3)[C@H](N(C)C)[C@H]2O)[C@@H](CC=O)C[C@@H](C)C(=O)/C=C/C(C)=C/[C@@H]1CO[C@@H]1O[C@H](C)[C@@H](O)[C@@H](OC)[C@H]1OC [TYLOSIN TARTRATE]
  Inhibition (%): 1

## CCc1oc2ccccc2c1C(=O)c1cc(Br)c(O)c(Br)c1 [BENZBROMARONE]
  inhibition at 50 µM: 106%

## O=C(/C=C/c1ccccc1)c1ccc(O[C@@H]2O[C@H](CO)[C@@H](O)[C@H](O)[C@H]2O)cc1O [2'.4'-DIHYDROXYCHALCONE 4'-GLUCOSIDE]
  Inhibition (%): 2

## COC(=O)[C@H]1[C@H]2C[C@H]3c4[nH]c5ccccc5c4CCN3C[C@@H]2CC[C@@H]1O [CORYNANTHINE]
  Inhibition (%): 2

## O=c1cc(-c2ccc(O)cc2)oc2cc(O)ccc12 [7.4'-DIHYDROXYFLAVONE]
  Inhibition (%): 1

## Cc1nc2sccn2c(=O)c1CCN1CCC(=C(c2ccc(F)cc2)c2ccc(F)cc2)CC1 [RITANSERIN]
  inhibition at 50 µM: 3%

## Nc1ncnc2c1ncn2[C@H]1C[C@H](O)[C@@H](CO)O1 [DEOXYADENOSINE]
  inhibition at 50 µM: 3%

## NCCC(=O)N[C@@H](Cc1cnc[nH]1)C(=O)O [CARNOSINE]
  inhibition at 50 µM: 0%

## O=C1c2c(O)cccc2Cc2cccc(O)c21 [ANTHRALIN]
  inhibition at 50 µM: 8%

## N=C1C=CC(=C(c2ccc(N)cc2)c2ccc(N)cc2)C=C1 [PARA[…]]
  inhibition at 50 µM: 138%

## CCOC(=O)[N-]c1cn(N2CCOCC2)n[o+]1 [MOLSIDOMINE]
  inhibition at 50 µM: 0%

## COc1ccc2c(c1)OC/C(=C\c1ccc(OC)c(O)c1)C2=O [SAPPANONE A DIMETHYL ETHER]
  inhibition at 50 µM: 2%

## CC1=C(C(=O)O)N2C(=O)[C@@H](NC(=O)[C@H](N)c3ccc(O)cc3)[C@H]2SC1 [CEFADROXIL]
  inhibition at 50 µM: 1%

## CC(C)COCC(CN(Cc1ccccc1)c1ccccc1)N1CCCC1 (stereo not shown) [BEPRIDIL HYDROCHLORIDE]
  inhibition at 50 µM: 18%

## C=C1C[C@H]2[C@@H]3C=C(C)C4=CC(=O)CC[C@]4(C)[C@H]3CC[C@]2(C)[C@@]1(OC(C)=O)C(C)=O [MELENGESTROL ACETATE]
  inhibition at 50 µM: 1%

## CC(=O)OCC(=O)[C@H]1CC[C@H]2[C@@H]3CCC4=CC(=O)CC[C@]4(C)[C@H]3CC[C@]12C [DESOXYCORTICOSTERONE ACETATE]
  inhibition at 50 µM: 1%

## Fc1ccc([C@@H]2CCNC[C@H]2COc2ccc3c(c2)OCO3)cc1 [PAROXETINE HYDROCHLORIDE]
  inhibition at 50 µM: 1%

## O=c1oc2cc(O)ccc2s1 [TIOXOLONE]
  inhibition at 50 µM: 88%

## C=C(CC)C(=O)c1ccc(OCC(=O)O)c(Cl)c1Cl [ETHACRYNIC ACID]
  inhibition at 50 µM: 85%

## O=c1c(O)c(-c2ccc(O)c(O)c2)oc2cc(O)cc(O)c12 [QUERCETIN]
  inhibition at 50 µM: 22%

## Cc1ccccc1N1C(=O)c2cc(S(N)(=O)=O)c(Cl)cc2NC1C (stereo not shown) [METOLAZONE]
  inhibition at 50 µM: 1%

## C=C1C(=O)O[C@@H]2C[C@@]3(C)CCC[C@H](C)C3=C[C@H]12 [HELENINE]
  inhibition at 50 µM: 2%

## Oc1ccc(O)cc1 [HYDROQUINONE]
  inhibition at 50 µM: 0%

## CC(=O)O[C@H]1C[C@@H]2CC[C@@H]3[C@H](CC[C@@]4(C)[C@H]3C[C@H]([N+]3(C)CCCCC3)[C@@H]4OC(C)=O)[C@@]2(C)C[C@@H]1[N+]1(C)CCCCC1 [PANCURONIUM BROMIDE]
  inhibition at 50 µM: 0%

## CCC(Cc1c(I)cc(I)c(N)c1I)C(=O)O (stereo not shown) [IOPANIC ACID]
  Inhibition (%): 16

## N[C@@H](C(=O)O)[C@@H](O)[C@H](O)[C@H](O)CO [GL[…]]
  inhibition at 50 µM: 1%

## O=C1c2c(O)cccc2C([C@@H]2O[C@H](CO)[C@@H](O)[C@H](O)[C@H]2O)c2cc(CO)cc(O)c21 (stereo partly shown) [ALOIN]
  inhibition at 50 µM: 45%

## CCN(CC)CCOC(=O)C(c1ccccc1)C1CCCCC1 (stereo not shown) [DROFENINE HYDROCHLORIDE]
  inhibition at 50 µM: 0%

## OCCOCCN1CCN(C(c2ccccc2)c2ccc(Cl)cc2)CC1 (stereo not shown) [HYDROXYZINE PAMOATE]
  inhibition at 50 µM: 125%

## CN(C(=O)CN(CCO)CC(=O)N(C)C(C)(C)Cc1ccccc1)C(C)(C)Cc1ccccc1 [OXETHAZAINE]
  inhibition at 50 µM: 0%
